Source: article PMC4113800 (Marine Drugs, 2014)

Columns and labels:
[1] = system: SW620 Ad300 cells; assay: Reversal of P-gp mediated doxorubicin resistance (MTT assay); assay type: cell-based, human
Protocol: (§1) The MTT assay was modified based on that previously described, using adherent cell lines SW620 and NCI-H460, and their P-gp over-expressing daughter cell line SW620 Ad300 and BCRP over-expressing daughter cell line NCI-H460/MX20, respectively. Briefly, cells were harvested with trypsin and added into 96-well microtitre assay plates at 2000 cells/well, followed by 18 h incubation at 37 °C with 5% CO2. […] Control wells were treated with 5% aqueous DMSO. […] 68 h later, 20 μL MTT (4 mg/mL in PBS) was dispensed into each well (final concentration 0.40 mg/mL), and plates were incubated for a further 4 h at 37 °C with 5% CO2. Finally medium was removed and precipitated formazan crystals were dissolved in 100% DMSO. The absorbance of each well was measured at 580 nm with a PowerWave XS Microplate Reader from Bio-Tek Instruments Inc. (Vinooski, VT, USA).
(§2) All experiments were performed in duplicate.

[2] = target: T1, P-gp (Homo sapiens, UniProt P08183); assay type: cell-based; details: compound or verapamil 20 μM vs PBS; calcein AM […]; SW620 Ad300; note: calcein AM 0.25 µM
T1 construct: The drug-resistant P-gp over-expressing daughter cell line SW620 Ad300 was established by stepwise selection; endogenous in cells; host or cells: SW620 Ad300 (human colon cancer, doxorubicin-selected)
Protocol: (§3) Flow cytometry based assays were used to measure the ability of natural or synthetic compounds to inhibit P-gp, BCRP or MRP1 mediated accumulation and/or efflux of fluorescent reagents. […] For the calcein AM accumulation assays, cells were directly analyzed by flow cytometry.
(§4) Intracellular fluorescence intensity was measured on a BD FACSCanto™ II flow cytometer (Becton Dickinson, San Jose, CA, USA) and data were analyzed through FlowJo (Tree Star, Inc., Ashland, OR, USA). […] Mitoxantrone fluorescence was detected with a 638 nm […] laser and a 660/20 nm band-pass filter. At least 10,000 events were collected for all of the flow cytometry experiment. By increasing threshold value on forward scatter versus side scatter, debris was eliminated. Dead cells were excluded based on propidium iodide staining. Data are means ± SEM of at least three independent experiments performed in duplicate.

[3] = MTT cytotoxicity assay, P-gp over-expressing SW620 Ad300 cells; assay type: cell-based; details: human
Protocol: as §1, §2

[4] = target: T2, BCRP (Homo sapiens, UniProt Q9UNQ0); assay: cell-based; details: for FAR (fluorescence arbitrary ratio), mitoxantrone fluorescence: compound 20 μM vs PBS; for FAR (fluorescence arbitrary ratio), mitoxantrone fluorescence / % FTC (inhibition of mitoxantrone efflux normalized to 10 μM FTC): NCI-H460/MX20; for % FTC (inhibition of mitoxantrone efflux normalized to 10 μM FTC): compound 20 μM
T2 sequence (Q9UNQ0 1-655): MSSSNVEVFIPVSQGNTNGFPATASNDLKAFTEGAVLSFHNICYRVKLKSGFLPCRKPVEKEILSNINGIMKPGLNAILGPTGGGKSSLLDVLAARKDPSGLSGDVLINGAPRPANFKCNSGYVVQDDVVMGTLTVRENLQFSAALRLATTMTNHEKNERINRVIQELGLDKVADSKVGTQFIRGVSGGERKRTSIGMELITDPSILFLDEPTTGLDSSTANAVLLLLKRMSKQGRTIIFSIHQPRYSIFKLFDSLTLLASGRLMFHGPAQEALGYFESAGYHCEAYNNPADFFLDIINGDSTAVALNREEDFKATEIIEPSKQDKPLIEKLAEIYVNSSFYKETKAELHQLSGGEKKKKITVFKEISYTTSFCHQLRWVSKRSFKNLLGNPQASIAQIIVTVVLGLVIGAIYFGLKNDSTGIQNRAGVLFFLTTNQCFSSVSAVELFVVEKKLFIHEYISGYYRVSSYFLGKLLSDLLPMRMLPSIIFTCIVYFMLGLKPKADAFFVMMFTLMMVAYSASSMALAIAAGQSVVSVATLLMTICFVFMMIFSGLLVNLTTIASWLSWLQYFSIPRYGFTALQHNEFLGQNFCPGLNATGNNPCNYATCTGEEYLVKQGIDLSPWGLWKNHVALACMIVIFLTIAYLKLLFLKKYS
Protocol: as §3, §4

[5] = MTT cytotoxicity assay, parental SW620 cells; assay type: cell-based; details: human
Protocol: as §1, §2

[6] = system: NCI-H460 cells; assay: [3H]-mitoxantrone accumulation and efflux in parental NCI-H460 cells; assay type: cell-based, human; details: 11 at 10 or 30 μM, FTC 5.0 μM
From the text: […]. […] […]

T1 sequence (P08183 whole entry): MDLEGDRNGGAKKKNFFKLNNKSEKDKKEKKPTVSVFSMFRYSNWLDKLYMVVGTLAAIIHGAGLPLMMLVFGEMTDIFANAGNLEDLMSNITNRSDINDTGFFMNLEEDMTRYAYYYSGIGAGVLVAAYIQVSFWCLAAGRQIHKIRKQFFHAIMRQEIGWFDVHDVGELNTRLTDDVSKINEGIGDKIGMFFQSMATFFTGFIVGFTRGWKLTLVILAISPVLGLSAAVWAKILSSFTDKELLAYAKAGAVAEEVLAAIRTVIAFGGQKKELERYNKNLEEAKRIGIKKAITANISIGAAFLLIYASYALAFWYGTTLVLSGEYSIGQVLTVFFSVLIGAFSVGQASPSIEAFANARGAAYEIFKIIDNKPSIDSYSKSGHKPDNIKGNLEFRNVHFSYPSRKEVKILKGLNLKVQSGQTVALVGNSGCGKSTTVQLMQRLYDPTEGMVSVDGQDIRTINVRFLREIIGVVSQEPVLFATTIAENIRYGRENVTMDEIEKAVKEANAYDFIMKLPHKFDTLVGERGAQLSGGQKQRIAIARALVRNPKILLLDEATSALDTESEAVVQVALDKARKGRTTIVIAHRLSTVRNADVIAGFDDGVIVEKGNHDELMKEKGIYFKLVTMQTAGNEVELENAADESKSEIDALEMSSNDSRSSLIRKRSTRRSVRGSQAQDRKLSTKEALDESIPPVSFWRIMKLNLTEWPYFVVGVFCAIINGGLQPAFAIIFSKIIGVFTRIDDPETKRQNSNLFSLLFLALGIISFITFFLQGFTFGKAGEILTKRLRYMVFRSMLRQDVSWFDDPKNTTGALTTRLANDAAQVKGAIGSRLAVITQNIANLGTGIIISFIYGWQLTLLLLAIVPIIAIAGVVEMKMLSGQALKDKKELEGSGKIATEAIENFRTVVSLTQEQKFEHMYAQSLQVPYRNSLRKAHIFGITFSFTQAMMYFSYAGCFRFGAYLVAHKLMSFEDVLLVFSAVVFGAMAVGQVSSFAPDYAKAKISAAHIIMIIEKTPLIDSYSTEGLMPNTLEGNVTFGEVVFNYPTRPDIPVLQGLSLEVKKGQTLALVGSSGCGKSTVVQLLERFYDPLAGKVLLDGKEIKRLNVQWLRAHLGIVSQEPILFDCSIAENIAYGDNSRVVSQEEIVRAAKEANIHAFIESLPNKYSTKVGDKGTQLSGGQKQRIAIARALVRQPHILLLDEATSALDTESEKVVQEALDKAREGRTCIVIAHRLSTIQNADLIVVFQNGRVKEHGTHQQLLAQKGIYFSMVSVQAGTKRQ

## COc1ccc(CCN(C)CCCC(C#N)(c2ccc(OC)c(OC)c2)C(C)C)cc1OC (stereo not shown) [verapamil, reference compound]
[1]; verapamil […]
  DMF (dose-modifying factor), increase in sensitivity towards doxorubicin: 8.8 fold

## COc1cccc2c1C(=O)c1c(O)c3c(c(O)c1C2=O)C[C@@](O)(C(=O)CO)C[C@@H]3O[C@H]1C[C@H](N)[C@H](O)[C@H](C)O1 [doxorubicin, reference compound]
[1]; Homo sapiens, doxorubicin alone
  IC50: 4.44 ± 0.21 µM

## COC(=O)C1(O)OC(=O)C(c2ccc(O)cc2)=C1c1ccc(O)cc1 (stereo not shown) [Compound 7, ianthellidone G]
[2]
  FAR (fluorescence arbitrary ratio), intracellular calcein fluorescence: 0.67 fold
[3]
  IC50 at 68 h: > 30 µM
[4]
  FAR (fluorescence arbitrary ratio), mitoxantrone fluorescence: 1.09 fold
  % FTC (inhibition of mitoxantrone efflux normalized to 10 μM FTC): 4.06 % FTC
[5]
  IC50 at 68 h: > 30 µM

## COC(=O)c1c(-c2ccc(O)cc2)c(-c2ccc(O)cc2)cn1CC(=O)c1ccc(OC)cc1 [Compound 11, lamellarin O]
[1]; lamellarin O (11) 5.0 μM
  DMF (dose-modifying factor), increase in sensitivity towards doxorubicin: 1.5 fold
[1]; lamellarin O (11) 10 μM
  DMF (dose-modifying factor), increase in sensitivity towards doxorubicin: 3.1 fold
[1]; lamellarin O (11) […] μM
  DMF (dose-modifying factor), increase in sensitivity towards doxorubicin: 4.8 fold
[3]
  IC50 at 68 h: 22.3 µM
[5]
  IC50 at 68 h: 22 µM
[6]
  effect on intracellular [3H]-mitoxantrone levels, accumulation phase: neither 11 (10 or 30 μM) nor FTC (5.0 μM) significantly changed intracellular [^3H]-mitoxantrone levels
  effect on intracellular [3H]-mitoxantrone levels, efflux phase: Neither 11 nor FTC had a significant effect

## COC(=O)c1[nH]cc(-c2ccc(O)cc2)c1-c1ccc(O)cc1 [Compound 12, lamellarin Q]
[2]
  FAR (fluorescence arbitrary ratio), intracellular calcein fluorescence: 0.54 fold
[3]
  IC50 at 68 h: > 30 µM
[4]
  FAR (fluorescence arbitrary ratio), mitoxantrone fluorescence: 1.41 fold
  % FTC (inhibition of mitoxantrone efflux normalized to 10 μM FTC): 18.6 % FTC
[5]
  IC50 at 68 h: > 30 µM

## COC(=O)c1c(-c2ccc(OC)cc2)c(-c2ccc(OC)cc2)cn1CC(=O)c1ccc(OC)cc1 [Compound 19, 4′,4″-dimethyl-lamellarin O]
[4]
  IC50: > 100 µM

## COC(=O)c1cc(Br)cn1CC(=O)c1ccc(OC)cc1 [Compound 14]
[4]
  FAR (fluorescence arbitrary ratio), mitoxantrone fluorescence: 1.03 fold
  % FTC (inhibition of mitoxantrone efflux normalized to 10 μM FTC): < 1.00 % FTC

## COC(=O)C1(O)C(c2ccc(O)cc2)=C(c2ccc(O)cc2)C(=O)N1CC(=O)c1ccc(OC)cc1 (stereo not shown) [Compound 6, ianthellidone F]
[2]
  FAR (fluorescence arbitrary ratio), intracellular calcein fluorescence: 0.61 fold
[3]
  IC50 at 68 h: > 30 µM
[4]
  FAR (fluorescence arbitrary ratio), mitoxantrone fluorescence: 1.21 fold
  % FTC (inhibition of mitoxantrone efflux normalized to 10 μM FTC): 9.79 % FTC
[5]
  IC50 at 68 h: > 30 µM

## COC(=O)c1c(-c2ccc(O)cc2)c(-c2ccc(O)cc2)cn1CC(=O)c1ccc(O)cc1 [Compound 9, lamellarin O1]
[2]
  FAR (fluorescence arbitrary ratio), intracellular calcein fluorescence: 0.61 fold
[3]
  IC50 at 68 h: > 30 µM
[4]
  FAR (fluorescence arbitrary ratio), mitoxantrone fluorescence: 1.23 fold
  % FTC (inhibition of mitoxantrone efflux normalized to 10 μM FTC): 10.6 % FTC
[5]
  IC50 at 68 h: > 30 µM

## COC(=O)c1c(Br)c(Br)c(Br)n1CC(=O)c1ccc(OC)cc1 [Compound 16]
[4]
  FAR (fluorescence arbitrary ratio), mitoxantrone fluorescence: 1.20 fold
  % FTC (inhibition of mitoxantrone efflux normalized to 10 μM FTC): 5.45 % FTC

## CCOCN1C(=O)C(c2ccc(O)cc2)=C(c2ccc(O)cc2)C1(O)C(=O)OC (stereo not shown) [Compound 4, ianthellidone D]
[2]
  FAR (fluorescence arbitrary ratio), intracellular calcein fluorescence: 0.60 fold
[3]
  IC50 at 68 h: > 30 µM
[4]
  FAR (fluorescence arbitrary ratio), mitoxantrone fluorescence: 1.15 fold
  % FTC (inhibition of mitoxantrone efflux normalized to 10 μM FTC): 6.66 % FTC
[5]
  IC50 at 68 h: > 30 µM

## COC(=O)C1(O)NC(=O)C(c2ccc(O)cc2)=C1c1ccc(O)cc1 (stereo not shown) [Compound 1, ianthellidone A]
[2]
  FAR (fluorescence arbitrary ratio), intracellular calcein fluorescence: 0.63 fold
[3]
  IC50 at 68 h: > 30 µM
[4]
  FAR (fluorescence arbitrary ratio), mitoxantrone fluorescence: 0.97 fold
  % FTC (inhibition of mitoxantrone efflux normalized to 10 μM FTC): <1.00 % FTC
[5]
  IC50 at 68 h: > 30 µM

## COCN1C(=O)C(c2ccc(O)cc2)=C(c2ccc(O)cc2)C1(O)C(=O)OC (stereo not shown) [Compound 3, ianthellidone C]
[2]
  FAR (fluorescence arbitrary ratio), intracellular calcein fluorescence: 0.61 fold
[3]
  IC50 at 68 h: > 30 µM
[4]
  FAR (fluorescence arbitrary ratio), mitoxantrone fluorescence: 1.12 fold
  % FTC (inhibition of mitoxantrone efflux normalized to 10 μM FTC): 5.60 % FTC
[5]
  IC50 at 68 h: > 30 µM

## COC(=O)c1ccc(Br)n1CC(=O)c1ccc(OC)cc1 [Compound 15]
[4]
  FAR (fluorescence arbitrary ratio), mitoxantrone fluorescence: 0.97 fold
  % FTC (inhibition of mitoxantrone efflux normalized to 10 μM FTC): < 1.00 % FTC

## CCOC1(C(=O)OC)NC(=O)C(c2ccc(O)cc2)=C1c1ccc(O)cc1 (stereo not shown) [Compound 2, ianthellidone B]
[2]
  FAR (fluorescence arbitrary ratio), intracellular calcein fluorescence: 0.52 fold
[3]
  IC50 at 68 h: > 30 µM
[4]
  FAR (fluorescence arbitrary ratio), mitoxantrone fluorescence: 1.07 fold
  % FTC (inhibition of mitoxantrone efflux normalized to 10 μM FTC): 3.13 % FTC
[5]
  IC50 at 68 h: > 30 µM

## CCOC(=O)CN1C(=O)C(c2ccc(O)cc2)=C(c2ccc(O)cc2)C1(O)C(=O)OC (stereo not shown) [Compound 5, ianthellidone E]
[2]
  FAR (fluorescence arbitrary ratio), intracellular calcein fluorescence: 0.59 fold
[3]
  IC50 at 68 h: > 30 µM
[4]
  FAR (fluorescence arbitrary ratio), mitoxantrone fluorescence: 1.14 fold
  % FTC (inhibition of mitoxantrone efflux normalized to 10 μM FTC): 6.20 % FTC
[5]
  IC50 at 68 h: > 30 µM

## COC(=O)c1c(-c2ccc(O)cc2)c(-c2ccc(O)cc2)cn1CC(O)c1ccc(O)cc1 (stereo not shown) [Compound 10, lamellarin O2]
[2]
  FAR (fluorescence arbitrary ratio), intracellular calcein fluorescence: 0.60 fold
[3]
  IC50 at 68 h: > 30 µM
[4]
  FAR (fluorescence arbitrary ratio), mitoxantrone fluorescence: 1.11 fold
  % FTC (inhibition of mitoxantrone efflux normalized to 10 μM FTC): 5.13 % FTC
[5]
  IC50 at 68 h: > 30 µM

## COC(=O)c1cccn1CC(=O)c1ccc(OC)cc1 [Compound 13]
[4]
  FAR (fluorescence arbitrary ratio), mitoxantrone fluorescence: 1.00 fold
  % FTC (inhibition of mitoxantrone efflux normalized to 10 μM FTC): < 1.00 % FTC

## COC(=O)C1(OC)OC(=O)C(c2ccc(O)cc2)=C1c1ccc(O)cc1 (stereo not shown) [Compound 8, ianthellidone H]
[2]
  FAR (fluorescence arbitrary ratio), intracellular calcein fluorescence: 0.60 fold
[3]
  IC50 at 68 h: > 30 µM
[4]
  FAR (fluorescence arbitrary ratio), mitoxantrone fluorescence: 1.13 fold
  % FTC (inhibition of mitoxantrone efflux normalized to 10 μM FTC): 6.06 % FTC
[5]
  IC50 at 68 h: > 30 µM
